Source: ChEMBL document CHEMBL5537180, “Discovery of Novel Aminobutanoic Acid-Based ASCT2 Inhibitors for the Treatment of Non-Small-Cell Lung Cancer” (J Med Chem, 2024)
Active and inactive are the calls of the source. The calls are words filed in the database; no cut-off is given here.

Key:
[1] = Bioavailability in Sprague-Dawley rat at 10 mg/kg, ip incubated for 24 hrs by LC-MS/MS analysis; assay type: ADME, organism-based; conditions: in vivo
A549 [2] = test: Induction of apoptosis in human A549 cells assessed as late apoptotic cells at 5 uM measured after 24 hrs by annexin-V/PI staining based flow cytometry analysis (reference value: 1.34%); assay type: functional
A549 [3] = test: Induction of apoptosis in human A549 cells assessed as necrotic cells at 10 uM measured after 24 hrs by annexin-V/PI staining based flow cytometry analysis (reference value: 0.13%); assay type: functional
A549 [4] = test: Induction of apoptosis in human A549 cells assessed as viable cells at 10 uM measured after 24 hrs by annexin-V/PI staining based flow cytometry analysis (reference value: 97.0%); assay type: functional; conditions: read-out: Activity
A549 [5] = test: Induction of apoptosis in human A549 cells assessed as early apoptotic cells at 10 uM measured after 24 hrs by annexin-V/PI staining based flow cytometry analysis (reference value: 1.56%); assay type: functional
[6] = Apparent volume of distribution with respect to the bioavailability in Sprague-Dawley rat at 10 mg/kg, ip incubated for 24 hrs by LC-MS/MS analysis; assay type: ADME, organism-based; conditions: in vivo, read-out: Vc/F
A549 [7] = test: Induction of apoptosis in human A549 cells assessed as late apoptotic cells at 10 uM measured after 24 hrs by annexin-V/PI staining based flow cytometry analysis (reference value: 1.34%); assay type: functional
A549 [8] = test: Antitumor activity against human A549 cells xenografted in BALB/c nude mouse assessed as tumor growth inhibition at 25 mg/kg, ip measured daily for 3 weeks relative to control; assay type: functional; conditions: A549, 504 h, read-out: TGI
[9] = target: T1, Sodium-coupled neutral amino acid symporter 1 (Homo sapiens) (UniProt Q9H2H9); test: Inhibition of SNAT1 (unknown origin) overexpressed in human A549 cells assessed as reduction in [13C]-Gln uptake preincubated for 5 mins followed by substrate addition and measured after 15 mins; assay type: cell-based; conditions: time 20.0 min
T1 sequence (whole entry): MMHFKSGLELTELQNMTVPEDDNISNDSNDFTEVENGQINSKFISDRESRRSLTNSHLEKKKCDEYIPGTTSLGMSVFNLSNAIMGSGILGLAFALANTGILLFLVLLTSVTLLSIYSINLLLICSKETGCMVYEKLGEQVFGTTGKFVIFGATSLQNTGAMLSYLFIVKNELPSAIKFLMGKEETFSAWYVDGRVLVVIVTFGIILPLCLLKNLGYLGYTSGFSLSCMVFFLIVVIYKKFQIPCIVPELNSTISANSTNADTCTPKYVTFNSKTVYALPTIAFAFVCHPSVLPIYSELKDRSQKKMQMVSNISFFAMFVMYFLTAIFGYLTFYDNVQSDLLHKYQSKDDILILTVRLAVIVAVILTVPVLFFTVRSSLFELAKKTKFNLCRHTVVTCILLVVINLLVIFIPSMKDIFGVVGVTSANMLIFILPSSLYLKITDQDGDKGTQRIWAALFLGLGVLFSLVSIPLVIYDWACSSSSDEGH

A549 [10] = test: Induction of apoptosis in human A549 cells assessed as necrotic cells at 5 uM measured after 24 hrs by annexin-V/PI staining based flow cytometry analysis (reference value: 0.13%); assay type: functional
[11] = target: T2, Neutral amino acid transporter B(0) (Homo sapiens, UniProt Q15758); test: Inhibition of ASCT2 in HEK293 cells assessed as reduction in glutamine uptake preincubated for 5 mins followed by substrate addition and measured after 15 mins; assay type: cell-based
T2 sequence (Q15758 whole entry): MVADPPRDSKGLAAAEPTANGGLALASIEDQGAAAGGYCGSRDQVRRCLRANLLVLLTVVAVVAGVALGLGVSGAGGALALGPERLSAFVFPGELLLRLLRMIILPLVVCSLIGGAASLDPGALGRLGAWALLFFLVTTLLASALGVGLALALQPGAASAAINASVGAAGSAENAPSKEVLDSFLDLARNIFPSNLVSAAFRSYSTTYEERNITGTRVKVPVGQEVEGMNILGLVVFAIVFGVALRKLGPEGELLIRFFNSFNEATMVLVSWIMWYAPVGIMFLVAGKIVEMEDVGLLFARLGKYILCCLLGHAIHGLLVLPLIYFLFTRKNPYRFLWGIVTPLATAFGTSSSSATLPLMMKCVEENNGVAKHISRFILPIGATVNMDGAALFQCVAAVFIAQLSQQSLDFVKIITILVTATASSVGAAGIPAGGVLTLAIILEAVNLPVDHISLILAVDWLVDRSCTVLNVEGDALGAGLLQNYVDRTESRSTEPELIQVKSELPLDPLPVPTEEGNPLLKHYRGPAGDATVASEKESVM

A549 [12] = test: Induction of apoptosis in human A549 cells assessed as early apoptotic cells at 5 uM measured after 24 hrs by annexin-V/PI staining based flow cytometry analysis (reference value: 1.56%); assay type: functional
A549 [13] = test: Induction of apoptosis in human A549 cells assessed as viable cells at 5 uM measured after 24 hrs by annexin-V/PI staining based flow cytometry analysis (reference value: 97.0%); assay type: functional; conditions: read-out: Activity

bioavailability [1] [%] | Vd/F [6] [L/kg] | inhibition [9] | IC50 [11] [µM] | SMILES | Activity (A549 [2]) [%] | Activity (A549 [3]) [%] | viability at 10 µM (A549 [4]) [%] | Activity (A549 [5]) [%] | Activity (A549 [7]) [%] | inhibition in vivo at 25 mg/kg (A549 [8]) [%] | Activity (A549 [10]) [%] | Activity (A549 [12]) [%] | viability at 5 µM (A549 [13]) [%]
77 | 49.5 | Active | 3.5 | N[C@@H](CCN(Cc1ccccc1OCC#Cc1ccc(Cl)cc1)Cc1ccccc1OCC#Cc1ccc(Cl)cc1)C(=O)O | 6.44 | 1.4 | 84.4 | 6.93 | 7.29 | 65 | 0.79 | 2.47 | 90.3
 | 20 |  | 5.14 | CC(C)(C)c1ccc(OCC#Cc2ccccc2)c(CN(CC[C@H](N)C(=O)O)Cc2cc(C(C)(C)C)ccc2OCC#Cc2ccccc2)c1 |  |  |  |  |  | 70 |  |  | 
